Results reported in patent US9975917B1, “Pentacyclic triterpenoidal derivatives” (KING SAUD UNIVERSITY, priority 2017, dated 2018).

Columns and labels:
5-Lipoxygenase [1] = target: T1, 5-Lipoxygenase (Rattus norvegicus, UniProt P12527); test: 5-LOX product formation from 20 μM exogenous substrate in 105,000 g supernatants of rat PMNL, cell-free (System B); type: biochemical; conditions: cell-free 105,000 g supernatant of rat PMNL, 20 μM arachidonic acid, 1 mM ATP, 1.8 mM CaCl2, 37° C. 5 min; means±standard deviation, n=6
T1 construct: from 20 μM exogenous substrate in 105.000 g supernatants of rat PMNL (System B); from tissue; host or cells: 105,000 g supernatant of sonicated peritoneal PMNL of Wistar rats
T1 sequence (P12527 1-673): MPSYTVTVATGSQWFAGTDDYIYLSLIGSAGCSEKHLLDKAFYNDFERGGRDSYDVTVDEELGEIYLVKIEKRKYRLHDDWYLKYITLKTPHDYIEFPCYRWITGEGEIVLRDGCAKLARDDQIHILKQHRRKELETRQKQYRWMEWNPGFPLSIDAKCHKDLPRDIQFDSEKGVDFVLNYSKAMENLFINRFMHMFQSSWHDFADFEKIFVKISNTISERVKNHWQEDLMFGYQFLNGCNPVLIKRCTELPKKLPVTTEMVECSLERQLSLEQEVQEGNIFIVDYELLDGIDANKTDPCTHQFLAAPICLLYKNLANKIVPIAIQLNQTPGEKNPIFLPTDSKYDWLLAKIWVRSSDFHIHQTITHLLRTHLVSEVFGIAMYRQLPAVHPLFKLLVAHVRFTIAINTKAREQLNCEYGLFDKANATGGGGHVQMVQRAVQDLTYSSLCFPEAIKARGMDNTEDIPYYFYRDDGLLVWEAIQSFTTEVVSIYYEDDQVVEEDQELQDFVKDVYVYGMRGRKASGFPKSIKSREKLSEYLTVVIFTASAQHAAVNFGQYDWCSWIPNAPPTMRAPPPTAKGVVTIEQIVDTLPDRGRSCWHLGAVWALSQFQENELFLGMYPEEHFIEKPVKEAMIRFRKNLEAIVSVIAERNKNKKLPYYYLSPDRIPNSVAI
Description: (§1) Glycogen-elicited rat peritoneal PMNL were collected 4 hours after the injection of a glycogen solution (5%) in Dulbecco's phosphate-buffered saline (PBS) into the peritoneum of 300-350 g Wistar rats. The washed cells (>90% PMNL) were lysed at 2×10^7 cells mL^−1 by sonication (3×5 s, digital Sonifier) in PBS containing 1 mm EDTA, and were subjected to sequential centrifugation at 10,000 and 105,000 g for 10 and 60 min (4° C.), respectively. Freshly obtained PMNL suspensions and aliquots of the 105,000 g supernatants were assayed for 5-lipoxygenase activity.
(§2) For 5-lipoxygenase product formation from endogenous arachidonic acid, glycogen-elicited rat peritoneal PMNL (1×10^7 cells) were stimulated at 37° C. for 5 min by ionophore A23187 and Ca^2+. The 5-lipoxygenase activity in the cell-free system was tested in aliquots (corresponding to 1×10^7 cells) of the 105,000 g supernatant fraction of rat PMNL in the presence of 1 mm ATP, 1.8 mM CaCl2, 1 mM EDTA, and 20 μM arachidonic acid at 37° C. for 5 min. In both intact cells and cell-free tests, the incubations were terminated by cooling to 4° C. and acidification to pH of 3 with formic acid. For inhibition studies, the test compounds dissolved in dimethyl sulphoxide (DMSO) were added 5 min prior to initiation.
(§3) Inhibitors and non-inhibitory pentacyclic triterpenes were added simultaneously. All incubations, including controls, were carried out in the presence of 0.5% DMSO. The 5-lipoxygenase products were quantified after the addition of 170 ng PGB2 as an internal standard by extraction, with RP-HPLC separation and ultraviolet detection of products. With intact rat PMNL and the 105,000 g supernatant fraction the main products from arachidonic acid of 5 min incubations were leukotriene B4 (LTB4), 6-trans-LTB4, 12-epi-6-trans-LTB4 and 5-HETE along with negligible amounts of 5(S), 12(S)-diHETE.
(§4) FIG. 2 is a graph showing the effects of the pentacyclic triterpenoidal derivatives on 5-Lox product formation for System A. FIG. 3 is a graph showing the effects of the pentacyclic triterpenoidal derivatives on 5-Lox product formation for System B. Inhibition concentrations (IC50) of the biological effect of each of the compounds were determined after logit-log transformation of the data for each experiment. Data of independent observations (n=6) are shown as means±standard deviation.

5-Lipoxygenase [2] = target: T1, 5-Lipoxygenase; test: 5-LOX product formation from endogenous arachidonic acid in ionophore-stimulated intact rat PMNL (System A); type: cell-based; conditions: ionophore A23187 and Ca2+, 37° C. 5 min, means±standard deviation, n=6
Description: as §1, §2, §3, §4

melting point	IC50 (5-Lipoxygenase [1])	IC50 (5-Lipoxygenase [2])	SMILES
	0.044 µM	0.021 µM	CC1CCC2(C)CCC3(C)C(=CC(=O)C4C5(C)C=CC(=O)C(C)(C(=O)c6ccccc6)C5CCC43C)C2C1C (centres unmarked) [Compound 6, 3,11-dioxo-24(Phenyl)-urs-1,12-diene-24-one]
256 °C	0.28 µM	0.17 µM	CC1CCC2(C)CCC3(C)C(=CC(=O)C4C5(C)CCC(=O)C(C)(c6ccccc6)C5CCC43C)C2C1C (centres unmarked) [Compound 5, 24-norurs-12-en-24(phenyl)-3,11-dione]
267 °C	0.24 µM	0.12 µM	CC1CCC2(C)CCC3(C)C(=CC(=O)C4C5(C)C=CC(=O)C(C)(c6ccccc6)C5CCC43C)C2C1C (centres unmarked) [Compound 7, 24-nor-urs-1,12-diene-24(phenyl)-3,11-dione]

Second part, the compound before the results:

SMILES	melting point	IC50 (5-Lipoxygenase [1])	IC50 (5-Lipoxygenase [2])
CC1CCC2(C)CCC3(C)C(=CC(=O)C4C5(C)CCC(=O)C(C)(C(=O)c6ccccc6)C5CCC43C)C2C1C (centres unmarked) [Compound 4, 3,11-dioxo-24(phenyl)-urs-12-en-24-one]	300 °C	0.098 µM	0.078 µM
CC1CCC2(C)CCC3(C)C(=CC(=O)C4C5(C)CCC(=O)C(C)(C(=O)Cl)C5CCC43C)C2C1C (stereo not drawn) [Compound 3, 3,11-dioxo-urs-12-en-24β-acid chloride]		0.34 µM	0.19 µM
CC1CCC2(C)CCC3(C)C(=CC(=O)C4C5(C)CCC(O)C(C)(C(=O)O)C5CCC43C)C2C1C (stereo not drawn) [11-keto-β-boswellic acid/1, 11-keto-β-boswellic acid, reference compound]		14.6 µM	2.8 µM
CC(=O)O[C@@H]1CC[C@@]2(C)[C@@H](CC[C@]3(C)[C@@H]2C(=O)C=C2[C@@H]4[C@@H](C)[C@H](C)CC[C@]4(C)CC[C@]23C)[C@@]1(C)C(=O)O [AKBA, Acetyl-11-keto-β-boswellic acid, reference compound]		7 µM	1.5 µM
